ChEMBL document CHEMBL3600376, “Antibacterial activity of diketopiperazines isolated from a marine fungus using t-butoxycarbonyl group as a simple tool for purification” (2015)
Converted amounts (≈) assume the structure as drawn.

Legend:
Assay type in all cases: functional
Bacillus subtilis = assay: Antibacterial activity against Bacillus subtilis NCTC 2116 after 18 hrs by agar diffusion method; details: NCTC 2116, 18 h
Escherichia coli = assay: Antibacterial activity against Escherichia coli ATCC 25922 after 18 hrs by agar diffusion method; details: ATCC 25922, 18 h
Staphylococcus aureus = assay: Antibacterial activity against Staphylococcus aureus ATCC 25923 after 18 hrs by agar diffusion method; details: ATCC 25923, 18 h

Compound | MIC (Bacillus subtilis) [µg/mL] | MIC (Escherichia coli) [µg/mL] | MIC (Staphylococcus aureus) [µg/mL]
CCC(C)[C@@H]1NC(=O)[C@@H]2CCCN2C1=O (stereo partly specified) | 15.8 (≈ 75.1 µM) | > 20 | 17.1 (≈ 81.3 µM)
CC(C)[C@@H]1NC(=O)[C@H]2CCCN2C1=O | 16 (≈ 81.5 µM) | 18.5 (≈ 94.3 µM) | 15.6 (≈ 79.5 µM)
CC(C)[C@@H]1NC(=O)[C@@H]2CCCN2C1=O | 18.2 (≈ 92.7 µM) | > 20 | 16.3 (≈ 83.1 µM)
CC(C)C[C@@H]1NC(=O)[C@@H]2CCCN2C1=O | 15.7 (≈ 74.7 µM) | > 20 | 18.8 (≈ 89.4 µM)
O=C1N[C@@H](Cc2ccccc2)C(=O)N2CCC[C@@H]12 | 17.2 (≈ 70.4 µM) | > 20 | 15.1 (≈ 61.8 µM)
O=C1N[C@@H](Cc2c[nH]c3ccccc23)C(=O)N2CCC[C@@H]12 [BREVIANAMIDE F] | 11.9 (≈ 42 µM) | > 20 | 12.6 (≈ 44.5 µM)
CN(C)[C@@H]1C(O)=C(C(N)=O)C(=O)[C@@]2(O)C(O)=C3C(=O)c4c(O)cccc4[C@@](C)(O)[C@H]3C[C@@H]12 [TETRACYCLINE] | 1.2 (≈ 2.7 µM) | 3.9 (≈ 8.78 µM) | 1.5 (≈ 3.38 µM)

Further molecules by falling MIC (Bacillus subtilis), results first:

MIC (Bacillus subtilis) [µg/mL] | MIC (Escherichia coli) [µg/mL] | MIC (Staphylococcus aureus) [µg/mL] | Compound
8.7 (≈ 33.4 µM) | > 20 | 10.2 (≈ 39.2 µM) | O=C1N[C@@H](Cc2ccc(O)cc2)C(=O)N2CCC[C@@H]12
6.7 (≈ 17.5 µM) | > 20 | 8.9 (≈ 23.2 µM) | CC(C)(C)OC(=O)n1cc(C[C@@H]2NC(=O)[C@@H]3CCCN3C2=O)c2ccccc21
3.3 (≈ 6.88 µM) | 16.4 (≈ 34.2 µM) | 2.8 (≈ 5.84 µM) | COc1ccc2c3c(n(C(=O)OC(C)(C)C)c2c1)[C@H](C=C(C)C)N1C(=O)[C@@H]2CCCN2C(=O)[C@@H]1C3
2.1 (≈ 3.81 µM) | 19 (≈ 34.4 µM) | 2.2 (≈ 3.99 µM) | CC(C)=CCc1c(C[C@H]2C(=O)N3CCC[C@H]3C(=O)N2C(=O)OC(C)(C)C)c2ccccc2n1C(=O)OC(C)(C)C
0.03 (≈ 0.0821 µM) | 0.8 (≈ 2.19 µM) | 0.05 (≈ 0.137 µM) | CC1(C)S[C@@H]2[C@H](NC(=O)[C@H](N)c3ccc(O)cc3)C(=O)N2[C@H]1C(=O)O [AMOXICILLIN]
